How the values were obtained:
Format in all cases: cell-based, human
IL-8 (interleukin-8) = assay: Cytokine gene expression, IL-8, IL-17A/TNF-α condition; details: FIG. 9
IL-24 (interleukin-24) = assay: Cytokine gene expression, IL-24, TNFα/IFN-γ induced inflammatory condition; details: FIG. 8
[1] = system: IL-1β (interleukin-1beta); assay: ELISA for IL-1β in LPS-treated HEKa cells; details: LPS-induced inflammatory condition, 10·M, FIG. 10
Protocol: ELISA (enzyme-linked immunosorbent assay) for IL-1β (interleukin-1beta) which is very closely related to atopic inflammation and psoriasis was performed.
As a specific experimental method, HEKa cells (Human Epidermal keratinocytes, adult), human-derived epidermal keratinocytes were seeded on a 24 well plate at a density of 1×10^5 cells, and cultured in an EpiLife medium (1× Human keratinocyte Growth supplement, 1× antibiotics) in an incubator under 37° C. and 5% CO2 for 24 hours.
After culturing, while an inflammatory condition was induced by treatment with LPS (lipopolysaccharides) in each well, further treatment was performed with Compound 8 of the present invention and the compound of the following Comparative Example at a concentration of 10·M, and then the cells were incubated for a certain period. After completing culturing, media were collected, and then ELISA for IL-1β was carried out, and the results are shown in FIG. 10.

KRT6 (Keratin 6) = assay: Western blot of proliferative marker KRT6; details: FIG. 4
Protocol: (§1) A psoriasis-related genes were selected from the cDNA array result in which Compound 8 of the present invention was treated in HaCaT cells. In order to analyze whether Compound 8 has an effect on psoriasis alleviation, RT-PCR analysis for IL-36′ (interleukin 36 gamma), KLK7 (Kallikrein-related peptidase 7), OASL (2′-5′-Oligoadenylate Synthetase Like) and ALOX12B (Arachidonate 12-lipoxygenase, 12R type) which are very closely related to psoriasis was carried out. Further, KRT16 (Keratin 16), KRT6 (Keratin 6) and KRT1 (Keratin 1), known as psoriasis-related proliferation, differentiation markers were confirmed by a western blot analysis. As the specific experimental method, HEKa cells (Human Epidermal keratinocytes, adult), human-derived epidermal keratinocytes were seeded on a 24 well plate at a density of 1×10^5 cells, and cultured in an EpiLife medium (1× Human keratinocyte Growth supplement, 1× antibiotics) in an incubator under 37° C. and 5% CO2 for 24 hours. […]

[2] = system: IL-36γ (interleukin 36, gamma); assay: Cytokine gene expression, IL-36γ, IL-17A/TNF-α condition; details: FIG. 9
[3] = system: ALOX12B (Arachidonate 12-lipoxygenase, 12R type); assay: RT-PCR of psoriasis-related gene ALOX12B; details: HEKa cells, 20 uM, FIGS. 2 and 3
Protocol: as §1

[4] = system: LC3 (light chain 3) protein; assay: Western blot for LC3 protein, autophagy activation; details: HaCaT cells; 20 uM dilution, 1 ml added to 1 ml medium; FIG. 1
Protocol: In order to analyze increased intracellular autophagy activation by treatment of Compound 8 of the present invention, a western blot analysis for LC3 (light chain 3) protein was performed.
As a specific experimental method, HaCaT, human epidermal keratinocytes were seeded in on a 6 well plate at a density of 3×10^5 cells, and cultured in DMEM (Dulbecco's Modified Eagle Media, Gibco BRL) in an incubator under 37° C. and 5% CO2 for 24 hours. Compound 8 of the present invention was dissolved in DMSO at a concentration of 10 mM to be a concentrate, and diluted with a medium to be at a concentration of 20 uM. Then in a state where 1 ml of medium was first in each well, 1 ml of each diluted solution was added thereto for treatment, and cultured for a certain period, and after completing the culture, the medium was removed, and then cells were disrupted with a SDS sample buffer, and each protein was separated by SDS-PAGE gel electrophoresis, and transferred to a PVDF (polyvinylidene fluoride) membrane. Thereafter, non-specific binding was eliminated using a blocking buffer, and an antibody against LC3 protein and a HRP-bound secondary antibody (anti-rabbit IgG HRP (sigma)) were reacted, and then an enhanced chemiluminescence (ECL) reaction using an ECL prime kit (Amersham Pharmacia) was carried out, thereby performing a ChemiDoc analysis.

Beclin-1 = assay: Western blot for Beclin-1 protein; details: HaCaT cells; 20 uM dilution, 1 ml added to 1 ml medium; FIG. 1
Protocol: In order to analyze which gene expression is related to increased autophagy activation by Compound 8 of the present invention, a western blot analysis for Beclin-1 and ULK-1 (Serine/threonine-protein kinase-1) proteins which are closely related to autophagy activation was performed.
As a specific experimental method, HaCaT cells, human-derived keratinocytes were seeded on a 60Ø dish at a density of 3×10^5 cells, and cultured in DMEM (Dulbecco's Modified Eagle Media, Gibco BRL) in an incubator under 37° C. and 5% CO2 for 24 hours. Compound 8 of the present invention was dissolved in DMSO at a concentration of 10 mM each to be a concentrate, and diluted with a medium to be at a concentration of 20 uM. Then in a state where 1 ml of medium was first in each well, 1 ml of each diluted solution was added thereto for treatment, and cultured for a certain period, and after completing the culturing, the medium was removed, and then cells were disrupted with a SDS sample buffer, and each protein was separated by SDS-PAGE gel electrophoresis, and transferred to a PVDF membrane. […]

## CCCCCCCCCCCCCCCC(=O)NCCCC[C@H](NC(=O)[C@H](CCCCN(CC(=O)O)CC(=O)O)N(CC(=O)O)CC(=O)O)C(=O)O [Compound 8]
IL-8 (interleukin-8)
  expression level of IL-8: reduced
IL-24 (interleukin-24)
  expression level of IL-24: reduced
[1]
  cytokine IL-1β secretion level: significantly reduced
KRT6 (Keratin 6)
  KRT6 (proliferative marker) level: reduced
[2]
  expression level of IL-36γ: reduced
[3]
  expression level of ALOX12B gene: significantly decreased
[4]
  production of LC3-II: increased
Beclin-1
  expression of Beclin-1 protein: significantly increased
